# Reference: patent US20250122190A1, “HALOGEN-SUBSTITUTED PYRIDAZINONE COMPOUND AND APPLICATION THEREOF” (MEDSHINE DISCOVERY INC., priority 2021, published 2025)
# Target: T1, hTRPC5-T478C (Homo sapiens, UniProt Q9UL62)
# T1 sequence (Q9UL62 1-973): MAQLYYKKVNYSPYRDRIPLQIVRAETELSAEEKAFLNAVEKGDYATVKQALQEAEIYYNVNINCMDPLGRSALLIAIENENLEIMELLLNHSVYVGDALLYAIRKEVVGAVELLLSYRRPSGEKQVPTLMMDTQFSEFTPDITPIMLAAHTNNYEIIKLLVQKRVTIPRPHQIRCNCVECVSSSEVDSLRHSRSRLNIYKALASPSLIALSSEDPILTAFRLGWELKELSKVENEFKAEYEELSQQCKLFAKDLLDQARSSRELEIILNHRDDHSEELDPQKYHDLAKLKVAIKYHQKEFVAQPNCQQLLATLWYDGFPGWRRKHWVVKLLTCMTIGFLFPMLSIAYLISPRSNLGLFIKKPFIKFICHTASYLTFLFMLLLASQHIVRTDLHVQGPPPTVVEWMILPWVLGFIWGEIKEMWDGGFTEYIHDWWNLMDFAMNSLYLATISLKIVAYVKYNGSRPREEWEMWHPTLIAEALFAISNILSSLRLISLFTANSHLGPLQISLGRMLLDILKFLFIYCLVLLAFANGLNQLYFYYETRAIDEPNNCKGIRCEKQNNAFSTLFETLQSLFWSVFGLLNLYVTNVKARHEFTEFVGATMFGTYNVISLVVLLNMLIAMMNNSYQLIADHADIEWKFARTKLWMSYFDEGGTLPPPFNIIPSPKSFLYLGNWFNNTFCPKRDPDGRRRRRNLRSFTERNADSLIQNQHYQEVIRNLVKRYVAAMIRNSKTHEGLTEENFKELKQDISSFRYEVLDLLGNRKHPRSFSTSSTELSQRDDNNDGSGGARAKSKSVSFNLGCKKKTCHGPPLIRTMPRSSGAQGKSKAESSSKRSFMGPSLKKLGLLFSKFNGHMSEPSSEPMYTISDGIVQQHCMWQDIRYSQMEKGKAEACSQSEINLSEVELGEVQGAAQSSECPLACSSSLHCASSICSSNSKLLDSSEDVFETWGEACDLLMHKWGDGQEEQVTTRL
# Experiment: hTRPC5-T478C patch clamp IC50 assay
# Type: cell-based
# Conditions: hTRPC5-T478C-HEK cells, whole-cell patch clamp, Englerin A agonist
# Description: Cell culture: hTRPC5-T478C-HEK cells were cultured in a humid environment in 5% CO2 at 37° C.
# Cell culture medium ingredients: • DMEM, Supplier: Gibco, Catalog No. 11965-092; • FBS, Supplier: Gibco, Catalog No. 10099-141C, Concentration: 10%; • Pen/Strep, Supplier: Invitrogen, Catalog No. 15140-122, Concentration: 1%; • Zeocin, Supplier: Invitrogen, Catalog No. R25005, Concentration: 200 μg/mL; • Blasticidin S, Supplier: Invitrogen, Catalog No. R21001, Concentration: 5 μg/mL.
# In general, the TRPC5-T478C cell line was passaged three times weekly. The dilution factor for each passage was 1:3. Once the cells reached about 80% confluence in the T-75 flask, the cell line was digested with trypsin for about 1 minute and the cell suspension was removed from the flask with a pipette. Depending on the dilution ratio, the removed cell suspension would be transferred to another T-75 flask containing cell culture medium. Note that in order to maintain the logarithmic growth of the cells, the confluence of the cells should be maintained at the subconfluent stage and the cells should be passaged once every 2 to 3 days depending on the proliferation rate of the cell line.
# (1) Extracellular fluid: sodium chloride (145 mmol/L), potassium chloride (4 mmol/L), magnesium chloride (1.5 mmol/L), glucose (10 mmol/L), hydroxyethyl piperazineethanesulfonic acid (HEPES, 10 mmol/L). The extracellular fluid was adjusted to pH 7.4 with NaOH, and the osmotic pressure was adjusted to about 305 mOsm/L with pure water or sucrose.
# (2) Intracellular fluid: cesium chloride (140 mmol/L), ethylene glycol diethyl ether diamine tetraacetic acid (EGTA, 1 mmol/L), magnesium chloride (2 mmol/L), glucose (10 mmol/L), hydroxyethyl piperazineethanesulfonic acid (HEPES, 10 mmol/L). The intracellular fluid was adjusted to pH 7.2 with […], and the osmotic pressure was adjusted to about 295 mOsm/L with pure water or sucrose.
# (3) The extracellular fluid was required to be formulated once a week, and the intracellular fluid was required to be subpackaged and stored at −20° C. after formulation.
# Positive reference compounds Englerin A and 2-aminoethoxydiphenyl borate (2-APB) were dissolved in 100% DMSO and stored as a 10 mM working solution after formulation. The test compounds were dissolved in 100% DMSO and stored as a 10 mM working solution after formulation. The final concentration of DMSO in the test solution should be less than 0.3%.
# Whole-cell patch clamping was performed at room temperature. The electrical signals recorded using an EPC 10 USB amplifier (HEKA Elektronik, Germany) were low-pass filtered at 3 kHz and finally recorded in PatchMaster 2×90.5 software (HEKA Elektronik, Germany). In this step, the quality control standards were that the cell high-resistance seal was formed at a value greater than 500 MOhms and the detection current was greater than 0.3 nA.
# The recording electrode was a borosilicate glass capillary (GC150tF-10, Harvard Apparatus Co., UK), which was pulled by a vertical puller (NARISHIGE PC-10, Japan) and polished. In this step, the quality control standard was that the electrode resistance was between 2 to 5 MΩ.
# During whole-cell patch clamp recordings, a continuous filling system (BT100-2J, LongerPump, China) was used to continuously perfuse extracellular fluid. The filling system was mounted on the stage of an upright microscope (FN—S2N, Nikon, Japan), and the filling tip was manually positioned under the microscope.
# The voltage instructions for hTRPC5-T478C current amplitude detection were as follows: the cells were clamped as follows: the clamping potential changed in a stepped manner from −40 mV to −80 mV (duration: 50 ms); then the clamping voltage ramped up to +80 mV, and the whole process lasted for 200 ms; then clamping was performed at +80 mV for 50 ms, and finally, the voltage returned to the clamping potential of −40 mV. […]
row,SMILES,IC50
1,O=c1[nH]ncc(N2CCc3c(ncnc3Sc3ccc(F)cc3C(F)(F)F)C2)c1Cl [Compound WX002],0.115 µM
2,COCc1nc2c(c(Oc3ccc(F)cc3C(F)(F)F)n1)CCN(c1cn[nH]c(=O)c1Cl)C2 [Compound WX011],0.191 µM
3,O=c1[nH]ncc(N2CCc3c(nc(CO)nc3Sc3ccc(F)cc3C(F)(F)F)C2)c1Cl [Compound WX012],0.0166 µM

# Second part, the molecule after the results:
row,IC50,SMILES
1,0.0153 µM,Nc1nc2c(c(Sc3ccc(F)cc3C(F)(F)F)n1)CCN(c1cn[nH]c(=O)c1Cl)C2 [Compound WX013]
2,0.304 µM,O=c1[nH]ncc(N2CCc3c(ncnc3Oc3ccc(F)cc3C(F)(F)F)C2)c1Br [Compound WX009]
3,0.0914 µM,O=c1[nH]ncc(N2CCc3c(ncnc3Oc3ccc(F)cc3Br)C2)c1Cl [Compound WX004]
4,0.196 µM,CC(F)(F)c1cc(F)ccc1Oc1ncnc2c1CCN(c1cn[nH]c(=O)c1Cl)C2 [Compound WX010]
